According to ChEMBL document CHEMBL1128960, “Phosphonic acid and phosphinic acid tripeptides as inhibitors of glutathionylspermidine synthetase” (Bioorg Med Chem Lett, 1996):

Molecular target: T1, Glutathionylspermidine synthase (Crithidia fasciculata) (UniProt P90518)
T1 sequence (whole entry): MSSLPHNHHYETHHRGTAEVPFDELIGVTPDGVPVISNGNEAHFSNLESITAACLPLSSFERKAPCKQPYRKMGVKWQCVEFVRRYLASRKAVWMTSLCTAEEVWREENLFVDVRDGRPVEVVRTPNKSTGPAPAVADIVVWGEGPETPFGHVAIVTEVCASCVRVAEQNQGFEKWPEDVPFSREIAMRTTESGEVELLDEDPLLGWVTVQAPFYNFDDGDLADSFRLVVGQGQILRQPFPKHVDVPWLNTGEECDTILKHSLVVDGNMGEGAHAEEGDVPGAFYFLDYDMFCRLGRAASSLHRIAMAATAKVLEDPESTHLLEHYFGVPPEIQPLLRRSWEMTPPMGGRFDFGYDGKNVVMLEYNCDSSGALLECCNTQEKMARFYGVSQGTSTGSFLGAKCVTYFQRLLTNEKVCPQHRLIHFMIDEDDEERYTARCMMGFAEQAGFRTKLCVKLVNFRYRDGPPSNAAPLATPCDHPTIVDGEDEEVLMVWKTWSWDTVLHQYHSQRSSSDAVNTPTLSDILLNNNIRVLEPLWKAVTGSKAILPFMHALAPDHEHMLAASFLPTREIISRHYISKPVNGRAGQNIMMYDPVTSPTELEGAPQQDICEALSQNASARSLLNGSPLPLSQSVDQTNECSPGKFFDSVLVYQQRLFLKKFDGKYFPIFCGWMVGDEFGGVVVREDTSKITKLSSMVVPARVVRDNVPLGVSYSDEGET
Experiment: Compound was tested for inhibitory activity against glutathionylspermidine synthetase in the presence of 5 mM glutathione and spermidine.

Row | Compound | inhibition
1 | CC(C)[C@H](NC(=O)[C@@H](N)CCC(=O)O)C(=O)NC[PH](=O)O | 50%
2 | CC(C)[C@H](NC(=O)[C@@H](N)CCC(=O)O)C(=O)NCP(=O)(O)O | 78%
3 | CC(C)[C@H](NC(=O)[C@@H](N)CCC(=O)O)C(=O)NCP(=O)(O)CCC(N)=O | 11%
4 | CC(C)[C@H](NC(=O)[C@@H](N)CCC(=O)O)C(=O)NC(C)P(C)(=O)O (some centres undefined) | 14%
5 | CC(C)C[C@H](NC(=O)[C@@H](N)CCC(=O)O)C(=O)NCCCP(=O)(O)O | 24%
6 | CC(C)C[C@H](NC(=O)[C@@H](N)CCC(=O)O)C(=O)NCC(=O)CP(=O)(O)O | 62%
7 | CC(C)[C@H](NC(=O)[C@@H](N)CCC(=O)O)C(=O)NCC(N)CP(=O)(O)O (some centres undefined) | 10%
8 | CC(C)[C@H](NC(=O)[C@@H](N)CCC(=O)O)C(=O)NCP(C)(=O)O | 26%
9 | CC(C)C[C@H](NC(=O)[C@@H](N)CCC(=O)O)C(=O)NCP(=O)(Oc1ccccc1)Oc1ccccc1 | 76%
10 | COC(=O)CCP(=O)(O)CNC(=O)[C@@H](NC(=O)[C@@H](N)CCC(=O)O)C(C)C | 71%
11 | CC(C)C[C@H](NC(=O)[C@@H](N)CCC(=O)O)C(=O)NCP(=O)(O)O | 86%

Molecular target: T1, Glutathionylspermidine synthase (Crithidia fasciculata)
Experiment: Compound was tested for inhibitory activity against glutathionylspermidine synthetase in the presence of 5 mM glutathione and spermidine; Not inhibition

Row | Compound | inhibition
12 | CC(C)[C@H](NC(=O)[C@@H](N)CCC(=O)O)C(=O)NCCCP(=O)(O)O | No inhibition
13 | CC(C)C[C@H](NC(=O)[C@@H](N)CCC(=O)O)C(=O)Nc1ccc(CP(=O)(O)O)cc1 | No inhibition
14 | CC(C)[C@H](NC(=O)[C@@H](N)CCC(=O)O)C(=O)NCC(=O)CP(=O)(O)O | No inhibition
15 | CC(C)[C@H](NC(=O)[C@@H](N)CCC(=O)O)C(=O)NCC(O)CP(=O)(O)O (some centres undefined) | No inhibition
16 | CC(C)[C@H](NC(=O)[C@@H](N)CCC(=O)O)C(=O)NCCP(=O)(O)O | No inhibition

Molecular target: T2, Glutathionylspermidine synthase (Crithidia fasciculata, UniProt P90518)
T2 sequence (P90518 whole entry): T1 sequence (whole entry)
Experiment: Compound was tested for linear non-competitive inhibitory activity against glutathionylspermidine synthetase.

Row | Compound | Ki
17 | CC(C)[C@H](NC(=O)[C@@H](N)CCC(=O)O)C(=O)NCP(=O)(O)O | 290 µM
18 | CC(C)C[C@H](NC(=O)[C@@H](N)CCC(=O)O)C(=O)NCP(=O)(O)O | 60 µM

Molecular target: T1, Glutathionylspermidine synthase (Crithidia fasciculata)
Experiment: Compound was tested for inhibitory activity against glutathionyl spermidine synthetase in the presence of 5 mM glutathione and spermidine.

Row | Compound | inhibition
19 | COC(=O)CCP(=O)(O)C(C)NC(=O)[C@@H](NC(=O)[C@@H](N)CCC(=O)O)C(C)C (some centres undefined) | 15%
